Experimental data: US20050158385A1, “Coating technique for deposition of drug substance on a substrate” (priority 2002, published 2005)

Experiment: in vitro release (dissolution) of tablets, USP II apparatus
Type: physicochemical
Conditions: tablets from Trial 2 (three strands of PVDF as core), 250 ml 0.1 N HCl, 37° C., paddle 50 rpm
Protocol: The dimensions of the tablets from both trials were similar, as both trials yielded tablets approximately 3 mm thick. To determine the dose of 2,3:4,5-bis-O-(1-methylethylidene)-β-D-fructopyranose sulfamate in each tablet, the tablet was dissolved in 10 ml H2O/0.1 N HCl 9/1 v/v. The concentration of 2,3:4,5-bis-O-(1-methylethylidene)-β-D-fructopyranose sulfamate was analyzed by HPLC (Waters System with Millenium Software, 2690 Alliance, Waters, Milford, Mass.). A sample of 50 uL is injected into a Zorbax Eclipse (HP, Palo Alto, Calif.) column (XDB-C8, 4.6*150 mm, P/N: 993967.906). The mobile phase consists of H2O/methanol 68/32 w/w at a flow rate of 1.5 mL/min. The concentration was determined with a refractive index detector (Sensitivity 32). The peak retention time is 6.7 minutes and the run takes 14 minutes.
The in vitro release of the tablets made in this example was also determined. Four tablets from Trial 2 were placed in a USP II apparatus (SR8 plus, Hanson, Chatsworth, Calif.) containing 250 ml of 0.1 N HCl at 37° C. and a paddle rotating at 50 rpm. Dissolution was followed up to 1 hour, with samples taken after 5, 15, 30 and 60 minutes. An aliquot of 5 ml was filtered through a PTFE 0.2 micron filter. The sample was not replaced with fresh solvent. The concentration of 2,3:4,5-bis-O-(1-methylethylidene)-β-D-fructopyranose sulfamate was analyzed by HPLC as discussed above.

2,3:4,5-bis-O-(1-methylethylidene)-β-D-fructopyranose sulfamate released (after 5 minutes): approximately 4%
2,3:4,5-bis-O-(1-methylethylidene)-β-D-fructopyranose sulfamate released (by 15 minutes): about 48%
2,3:4,5-bis-O-(1-methylethylidene)-β-D-fructopyranose sulfamate released (in 30 minutes): complete release
SMILES: CC1(C)O[C@@H]2[C@@H](CO[C@@]3(COS(N)(=O)=O)OC(C)(C)O[C@@H]23)O1 [2,3:4,5-bis-O-(1-methylethylidene)-β-D-fructopyranose sulfamate]
